O=[N+]([O-])c1ccc(S(=O)(=O)[O-])cc1.[Na+]
solubility (mole fraction)
Conditions	283.15 K	288.15 K	293.15 K	298.15 K	303.15 K	308.15 K	313.15 K	318.15 K	323.15 K
in THF	0.000109	0.000112	0.000117	0.000122	0.000127	0.000132	0.000138	0.000145	0.000156
in acetone	0.012	0.014	0.0161	0.0182	0.0206	0.0229	0.0258	0.029	0.0323
in cyclohexanone	0.000906	0.000913	0.000917	0.000927	0.000938	0.000954	0.000967	0.000991	0.00101
in ethanol	0.00104	0.00118	0.00133	0.00147	0.00164	0.0018	0.00204	0.00232	0.0026
in ethyl acetate	8.84e-05	9.96e-05	0.000109	0.00012	0.000131	0.000143	0.000157	0.000175	0.000193
in n-butanol	0.000318	0.000405	0.000498	0.000597	0.000699	0.000798	0.000947	0.00111	0.00131

From BigSolDB 2.1
